Holding throughout (assay): relative viability (nuclei count vs DMSO), 5 days (fraction); higher = more cells survive
One test relates to NCI-H1703. Put shortly:
(§1)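 Cells from lung cancer lines were seeded into 1536-well plates and, one day later, dosed by pin tool. Treatments were either a single drug or a fixed dose of an anchor drug with five library-drug doses (not always all listed) in √10 steps. After 5 days, nuclei were stained in a one-step fixation (final 0.05% Triton X-100, 1% formaldehyde, 1 ug/ml Hoechst) and counted on 4× images, and relative viability is the treated-to-vehicle nuclei ratio, as the median of duplicate plates.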

The test system of the next test is LK-2. The procedure, abridged:
as §1

The next test relates to NCI-H1648. Put shortly:
as §1

The subject of the next test is CAL-12T. Put shortly: as §1
Another test concerns NCI-H522. Put shortly: as §1
For another test, the system named is NCI-H1650. The procedure, abridged:
as §1

The test system of the next test is A549. The procedure, abridged: as §1
The subject of a further test is IA-LM. Put shortly: as §1

In the supplement of paper PMC10307832 one finds relative viability data, which are given here for four compounds.

Consider `O=C(O)c1ccc(-c2c[nH]c3ncc(-c4ccccc4)cc23)cc1C1CCCC1` + NC(=O)Nc1cc(-c2cccc(F)c2)sc1C(=O)N[C@H]1CCCNC1 [AZD7762] (partner 0.2 µM), for which the relative viability in the test with NCI-H1703 (first compound 0.1265 µM) amounted to 0.0651; with NCI-H1703 (first compound 0.4 µM), 0.148; in the test on NCI-H1703 (first compound 1.265 µM), 0.135; with LK-2 (first compound 0.04 µM), 0.446; with LK-2 (first compound 0.1265 µM), 0.614; in the test with LK-2 (first compound 0.4 µM), 0.373. For the same compound, the relative viability came to 0.49 with LK-2 (first compound 1.265 µM); 0.687 in the test on NCI-H1648 (first compound 0.04 µM); 0.716 in the test on NCI-H1648 (first compound 0.1265 µM); 0.82 in the test with NCI-H1648 (first compound 0.4 µM); 0.632 with CAL-12T (first compound 0.04 µM); 0.698 with CAL-12T (first compound 0.1265 µM). The relative viability in the test with CAL-12T (first compound 0.4 µM) is 0.629; with CAL-12T (first compound 1.265 µM) it was 0.671; in the test on NCI-H522 (first compound 0.04 µM), 0.662; with NCI-H522 (first compound 0.1265 µM), 0.896; in the test with NCI-H522 (first compound 0.4 µM), 0.785; with NCI-H522 (first compound 1.265 µM), 0.882.
`CC1(C)CCC(c2ccc(Cl)cc2)=C(CN2CCN(c3ccc(C(=O)NS(=O)(=O)c4ccc(N[C@H](CCN5CCOCC5)CSc5ccccc5)c(S(=O)(=O)C(F)(F)F)c4)cc3)CC2)C1` [Navitoclax] + Nc1ncn([C@H]2C[C@H](O)[C@@H](CO)O2)c(=O)n1 [Decitabine] (partner 2 µM): the relative viability was 0.295 in the test with LK-2 (first compound 0.005 µM); 0.279 in the test on LK-2 (first compound 0.01581 µM); 0.235 in the test on LK-2 (first compound 0.05 µM); 0.267 in the test on LK-2 (first compound 0.1581 µM); 0.4 in the test on LK-2 (first compound 0.5 µM); 0.528 in the test on NCI-H1648 (first compound 0.005 µM). Further, the relative viability was 0.511 with NCI-H1648 (first compound 0.01581 µM); 0.518 with NCI-H1648 (first compound 0.1581 µM); 0.44 in the test on NCI-H1648 (first compound 0.5 µM); 0.43 in the test on NCI-H1650 (first compound 0.005 µM); 0.424 in the test on NCI-H1650 (first compound 0.01581 µM); 0.399 in the test with NCI-H1650 (first compound 0.05 µM). Moreover, the relative viability turned out to be 0.364 in the test on NCI-H1650 (first compound 0.1581 µM); 0.334 in the test on NCI-H1650 (first compound 0.5 µM); 0.252 with A549 (first compound 0.005 µM); 0.249 with A549 (first compound 0.01581 µM); 0.204 in the test on A549 (first compound 0.05 µM); 0.271 in the test with A549 (first compound 0.1581 µM). For the same compound, the relative viability in the test on A549 (first compound 0.5 µM) came to 0.246; in the test with NCI-H522 (first compound 0.005 µM), 0.685; with NCI-H522 (first compound 0.01581 µM), 0.696; with NCI-H522 (first compound 0.05 µM), 0.699; in the test on NCI-H522 (first compound 0.1581 µM) it was 0.547; in the test with NCI-H522 (first compound 0.5 µM), 0.712.
Regarding `NC(=O)Nc1cc(-c2cccc(F)c2)sc1C(=O)N[C@H]1CCCNC1` [AZD7762] + O=C(CCCCCCC(=O)Nc1ccccc1)NO [Vorinostat] (partner 1 µM), the relative viability turned out to be 0.307 with LK-2 (first compound 0.01 µM); 0.316 with LK-2 (first compound 0.03162 µM); 0.272 with LK-2 (first compound 0.1 µM); 0.468 in the test with LK-2 (first compound 0.3162 µM); 0.283 with LK-2 (first compound 1 µM); 1.04 in the test on IA-LM (first compound 0.01 µM). Besides, the relative viability worked out at 0.984 with IA-LM (first compound 0.03162 µM); 1.04 in the test on IA-LM (first compound 0.1 µM); 0.74 with IA-LM (first compound 0.3162 µM); 1.17 in the test with IA-LM (first compound 1 µM); 0.735 in the test with NCI-H1648 (first compound 0.01 µM); 0.488 in the test with NCI-H1648 (first compound 0.03162 µM). Besides, the relative viability with NCI-H1648 (first compound 0.1 µM) is 0.45; in the test with NCI-H1648 (first compound 0.3162 µM), 0.472; in the test on NCI-H1648 (first compound 1 µM), 0.421; in the test with CAL-12T (first compound 0.01 µM), 0.861; in the test on CAL-12T (first compound 0.03162 µM), 0.693; in the test with CAL-12T (first compound 0.1 µM) it was 0.9. Moreover, the relative viability with CAL-12T (first compound 0.3162 µM) amounted to 0.276; in the test on CAL-12T (first compound 1 µM), 0.167; in the test with NCI-H1650 (first compound 0.01 µM) it was 0.622; in the test on NCI-H1650 (first compound 0.03162 µM), 0.719; with NCI-H1650 (first compound 0.1 µM) it was 0.651; with NCI-H1650 (first compound 0.3162 µM), 0.392. For the same compound, the relative viability turned out to be 0.157 in the test on NCI-H1650 (first compound 1 µM); 0.869 with NCI-H522 (first compound 0.01 µM); 0.923 with NCI-H522 (first compound 0.03162 µM); 0.912 with NCI-H522 (first compound 0.1 µM); 0.624 in the test on NCI-H522 (first compound 0.3162 µM); 0.783 with NCI-H522 (first compound 1 µM).
Turning to `O=C(O)c1ccc(-c2c[nH]c3ncc(-c4ccccc4)cc23)cc1C1CCCC1` + O=C(CCCCCCC(=O)Nc1ccccc1)NO [Vorinostat] (partner 1 µM), the relative viability with LK-2 (first compound 0.04 µM) came out at 0.333; in the test with LK-2 (first compound 0.1265 µM), 0.311; with LK-2 (first compound 0.4 µM), 0.385; in the test on LK-2 (first compound 1.265 µM), 0.199; in the test with IA-LM (first compound 0.04 µM), 0.976; in the test with IA-LM (first compound 0.1265 µM), 1.07. Besides, the relative viability was 1.13 in the test with IA-LM (first compound 0.4 µM); 1.03 in the test with IA-LM (first compound 1.265 µM); 0.648 in the test on NCI-H1648 (first compound 0.04 µM); 0.581 in the test on NCI-H1648 (first compound 0.1265 µM); 0.331 in the test with NCI-H1648 (first compound 0.4 µM); 0.721 in the test on CAL-12T (first compound 0.04 µM). Besides, the relative viability in the test with CAL-12T (first compound 0.1265 µM) worked out at 0.91; with CAL-12T (first compound 0.4 µM), 0.73; in the test on CAL-12T (first compound 1.265 µM) it was 0.668; in the test on NCI-H1650 (first compound 0.04 µM), 0.418; in the test on NCI-H1650 (first compound 0.1265 µM), 0.513; with NCI-H1650 (first compound 0.4 µM), 0.538. Besides, the relative viability turned out to be 0.476 in the test on NCI-H1650 (first compound 1.265 µM); 0.932 with NCI-H522 (first compound 0.04 µM); 0.984 in the test with NCI-H522 (first compound 0.1265 µM); 0.843 in the test on NCI-H522 (first compound 0.4 µM); 1.11 in the test with NCI-H522 (first compound 1.265 µM).
